From ChEMBL document CHEMBL1201862, “PubChem BioAssay data set” (2004)
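The compound was tested at five concentrations on cells cultured in 96-well plates, with a 48-hour exposure period. GI50 = concentration required for 50% inhibition of growth.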 Activity calls are given as the source filed them. Rule as the data show it: active = GI50 up to about 1.1 µM and inactive = higher.

Key:
Experiment in all cases: DTP human tumour cell line panel, 48 h
OVCAR-3 = tested on: OVCAR-3
Malme-3M = tested on: Malme-3M
NCI-H23 = tested on: NCI-H23
K562 = tested on: K562
SNB-19 = tested on: SNB-19
UACC-62 = tested on: UACC-62
SK-OV-3 = tested on: SK-OV-3
CAKI-1 = tested on: CAKI-1
A498 = tested on: A498
Hs-578T = tested on: Hs-578T
KM12 = tested on: KM12
LOX IMVI = tested on: LOX IMVI
SF-539 = tested on: SF-539
NCI-H460 = tested on: NCI-H460
UACC-257 = tested on: UACC-257
EKVX = tested on: EKVX
U-251 = tested on: U-251
SNB-75 = tested on: SNB-75
TK-10 = tested on: TK-10
COLO 205 = tested on: COLO 205
MDA-MB-435 = tested on: MDA-MB-435
HL-60 = tested on: HL-60
PC-3 = tested on: PC-3
BT-549 = tested on: BT-549
ACHN = tested on: ACHN
UO-31 = tested on: UO-31
M14 = tested on: M14
A549 = tested on: A549
786-0 = tested on: 786-0
NCI/ADR-RES = tested on: NCI/ADR-RES
HT-29 = tested on: HT-29
MDA-MB-231 = tested on: MDA-MB-231
RPMI-8226 = tested on: RPMI-8226
MDA-N = tested on: MDA-N
HOP-62 = tested on: HOP-62
IGROV-1 = tested on: IGROV-1
SR = tested on: SR
HOP-92 = tested on: HOP-92
SK-MEL-2 = tested on: SK-MEL-2
DU-145 = tested on: DU-145
RXF 393 = tested on: RXF 393
HCT-15 = tested on: HCT-15
NCI-H226 = tested on: NCI-H226
NCI-H522 = tested on: NCI-H522
OVCAR-5 = tested on: OVCAR-5
SK-MEL-5 = tested on: SK-MEL-5
SN12C = tested on: SN12C
SF-295 = tested on: SF-295
MOLT-4 = tested on: MOLT-4
HCT-116 = tested on: HCT-116
SW-620 = tested on: SW-620
T47D = tested on: T47D
SF-268 = tested on: SF-268
CCRF-CEM = tested on: CCRF-CEM
SK-MEL-28 = tested on: SK-MEL-28
MCF7 = tested on: MCF7
OVCAR-8 = tested on: OVCAR-8
OVCAR-4 = tested on: OVCAR-4

O=C(N/N=C/c1ccc([N+](=O)[O-])cc1)c1cccc2nc3ccccc3nc12
GI50 (OVCAR-3): > 100 µM (inactive)
GI50 (Malme-3M): > 100 µM (inactive)
GI50 (NCI-H23): 12.2 µM (inactive)
GI50 (K562): > 70.3 µM (inactive)
GI50 (SNB-19): > 55.8 µM (inactive)
GI50 (UACC-62): > 100 µM (inactive)
GI50 (SK-OV-3): > 56.9 µM (inactive)
GI50 (CAKI-1): > 100 µM (inactive)
GI50 (A498): > 100 µM (inactive)
GI50 (Hs-578T): 9.75 µM (inactive)
GI50 (KM12): > 100 µM (inactive)
GI50 (LOX IMVI): > 85.5 µM (inactive)
GI50 (SF-539): > 38.5 µM (inactive)
GI50 (NCI-H460): 1.5 µM (inactive)
GI50 (UACC-257): > 100 µM (inactive)
GI50 (EKVX): > 100 µM (inactive)
GI50 (U-251): 41.5 µM (inactive)
GI50 (SNB-75): > 100 µM (inactive)
GI50 (TK-10): > 38 µM (inactive)
GI50 (COLO 205): 2.65 µM (inactive)
GI50 (MDA-MB-435): > 100 µM (inactive)
GI50 (HL-60): > 100 µM (inactive)
GI50 (PC-3): > 75.9 µM (inactive)
GI50 (BT-549): > 55.8 µM (inactive)
GI50 (ACHN): > 38.5 µM (inactive)
GI50 (UO-31): > 71.4 µM (inactive)
GI50 (M14): > 100 µM (inactive)
GI50 (A549): 1.24 µM (inactive)
GI50 (786-0): > 100 µM (inactive)
GI50 (NCI/ADR-RES): > 100 µM (inactive)
GI50 (HT-29): > 100 µM (inactive)
GI50 (MDA-MB-231): > 70.3 µM (inactive)
GI50 (RPMI-8226): > 100 µM (inactive)
GI50 (MDA-N): > 100 µM (inactive)
GI50 (HOP-62): 1.74 µM (inactive)
GI50 (IGROV-1): > 100 µM (inactive)
GI50 (SR): > 39.5 µM (inactive)
GI50 (HOP-92): > 51.9 µM (inactive)
GI50 (SK-MEL-2): > 100 µM (inactive)
GI50 (DU-145): 65 µM (inactive)
GI50 (RXF 393): 33.3 µM (inactive)
GI50 (HCT-15): > 55.7 µM
GI50 (NCI-H226): > 100 µM (inactive)
GI50 (NCI-H522): > 100 µM (inactive)
GI50 (OVCAR-5): > 86.1 µM (inactive)
GI50 (SK-MEL-5): 2.07 µM (inactive)
GI50 (SN12C): > 100 µM (inactive)
GI50 (SF-295): 78.2 µM (inactive)
GI50 (MOLT-4): > 36.8 µM (inactive)
GI50 (HCT-116): > 100 µM (inactive)
GI50 (SW-620): > 100 µM (inactive)
GI50 (T47D): > 100 µM (inactive)
GI50 (SF-268): > 58.9 µM (inactive)
GI50 (CCRF-CEM): > 92.5 µM (inactive)
GI50 (SK-MEL-28): > 100 µM (inactive)
GI50 (MCF7): > 100 µM (inactive)
GI50 (OVCAR-8): > 90.8 µM (inactive)
GI50 (OVCAR-4): > 100 µM (inactive)

COC(=O)C1C(OS(=O)(=O)O)CCC2CN3CCc4c([nH]c5ccccc45)C3CC21 (stereo unspecified)
GI50 (OVCAR-3): > 100 µM (inactive)
GI50 (Malme-3M): > 100 µM (inactive)
GI50 (NCI-H23): > 100 µM (inactive)
GI50 (K562): > 100 µM (inactive)
GI50 (SNB-19): > 100 µM (inactive)
GI50 (UACC-62): > 100 µM (inactive)
GI50 (SK-OV-3): > 100 µM (inactive)
GI50 (CAKI-1): > 100 µM (inactive)
GI50 (A498): > 100 µM (inactive)
GI50 (Hs-578T): > 100 µM (inactive)
GI50 (KM12): > 100 µM (inactive)
GI50 (LOX IMVI): > 100 µM (inactive)
GI50 (SF-539): > 100 µM (inactive)
GI50 (NCI-H460): > 100 µM (inactive)
GI50 (UACC-257): > 100 µM (inactive)
GI50 (EKVX): > 100 µM (inactive)
GI50 (U-251): > 100 µM (inactive)
GI50 (SNB-75): > 100 µM (inactive)
GI50 (TK-10): > 100 µM (inactive)
GI50 (COLO 205): > 100 µM (inactive)
GI50 (MDA-MB-435): > 100 µM (inactive)
GI50 (HL-60): > 100 µM (inactive)
GI50 (PC-3): > 100 µM (inactive)
GI50 (BT-549): > 100 µM (inactive)
GI50 (ACHN): > 100 µM (inactive)
GI50 (UO-31): > 100 µM (inactive)
GI50 (M14): > 100 µM (inactive)
GI50 (A549): > 100 µM (inactive)
GI50 (786-0): > 100 µM (inactive)
GI50 (NCI/ADR-RES): > 100 µM (inactive)
GI50 (HT-29): > 100 µM (inactive)
GI50 (MDA-MB-231): > 100 µM (inactive)
GI50 (RPMI-8226): > 100 µM (inactive)
GI50 (MDA-N): > 100 µM (inactive)
GI50 (HOP-62): > 100 µM (inactive)
GI50 (IGROV-1): > 100 µM (inactive)
GI50 (SR): > 100 µM (inactive)
GI50 (HOP-92): > 100 µM (inactive)
GI50 (SK-MEL-2): > 100 µM (inactive)
GI50 (DU-145): > 100 µM (inactive)
GI50 (RXF 393): > 100 µM (inactive)
GI50 (HCT-15): > 100 µM
GI50 (NCI-H226): > 100 µM (inactive)
GI50 (NCI-H522): > 100 µM (inactive)
GI50 (OVCAR-5): > 100 µM (inactive)
GI50 (SK-MEL-5): > 100 µM (inactive)
GI50 (SN12C): > 100 µM (inactive)
GI50 (SF-295): > 100 µM (inactive)
GI50 (MOLT-4): > 100 µM (inactive)
GI50 (HCT-116): > 100 µM (inactive)
GI50 (SW-620): > 100 µM (inactive)
GI50 (T47D): > 100 µM (inactive)
GI50 (SF-268): > 100 µM (inactive)
GI50 (CCRF-CEM): > 100 µM (inactive)
GI50 (SK-MEL-28): > 100 µM (inactive)
GI50 (MCF7): > 100 µM (inactive)
GI50 (OVCAR-8): > 100 µM (inactive)
GI50 (OVCAR-4): > 100 µM (inactive)
